Test [1] has as its target Btk (Mus musculus (Mouse), UniProt P35991). The test can be described thus: Btk occupancy in vivo (PCI-33380 labeling of PBMCs or splenocytes). Details: species or system BALB/c mice. Conditions: Babc/L mice, after 4 hours.
Experimental: For analysis of Btk occupancy in Babc/L mice following oral dosing of compounds after 4 hours. Isolating peripheral blood mononuclear cells (PBMCs) with mouse peripheral blood separation kit (Hao Yang Biological Manufacture CO., LTD, Tianjin) were collected from Babc/L mice (1 ml blood from two mice). Spleens were processed to splenocytes followed by 5 min incubation in red blood cell lysing buffer (from mouse peripheral blood separation kit).
The target in test [2] is BTK (Homo sapiens (Human), UniProt Q06187). The test can be described thus: biochemical.
Experimental: Btk kinase activity was determined using a homogenous time resolved fluorescence (HTRF) methodology. Measurements were performed in a reaction volume of 15 μL using 384-well assay plates. Kinase enzyme, inhibitor, ATP and 1 M peptide substrate were incubated in a reaction buffer compose of Hepes 50 mM (pH7.0), NaN3 0.02%, BSA 0.01%, Orthocanadate 0.1 mM. […] For each compound, enzyme activity as measured at various concentrations of compound, Negative control reactions were performed in the absence of inhibitor in two replicates and eight no enzyme controls were used to determine baseline fluorescence levels.

pIC50: −log10 of the molar value. Read-outs that look alike come from different tables or passages of the source.

The record followed here is patent US11554118B2 (priority 2017, dated 2023).

BTK, sequence (Q06187 whole entry, looked up, species assumed): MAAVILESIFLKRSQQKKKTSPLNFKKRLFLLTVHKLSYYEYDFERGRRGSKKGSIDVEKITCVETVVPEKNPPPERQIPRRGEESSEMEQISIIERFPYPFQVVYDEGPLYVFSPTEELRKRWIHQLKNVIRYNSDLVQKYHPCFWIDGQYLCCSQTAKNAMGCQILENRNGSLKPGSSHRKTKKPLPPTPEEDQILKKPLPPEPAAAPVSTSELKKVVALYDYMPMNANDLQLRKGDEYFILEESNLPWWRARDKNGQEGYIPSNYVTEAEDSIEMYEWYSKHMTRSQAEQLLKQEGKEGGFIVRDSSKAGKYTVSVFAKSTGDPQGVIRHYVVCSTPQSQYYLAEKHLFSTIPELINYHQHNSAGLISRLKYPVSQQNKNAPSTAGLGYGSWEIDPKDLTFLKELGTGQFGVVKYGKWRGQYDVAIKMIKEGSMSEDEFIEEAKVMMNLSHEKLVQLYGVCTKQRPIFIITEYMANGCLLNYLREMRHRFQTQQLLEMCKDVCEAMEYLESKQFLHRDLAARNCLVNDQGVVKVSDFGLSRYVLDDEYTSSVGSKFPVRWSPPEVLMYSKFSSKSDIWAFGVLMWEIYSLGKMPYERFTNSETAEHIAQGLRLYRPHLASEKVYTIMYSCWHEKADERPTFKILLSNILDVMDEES
Btk, sequence (P35991 whole entry, looked up): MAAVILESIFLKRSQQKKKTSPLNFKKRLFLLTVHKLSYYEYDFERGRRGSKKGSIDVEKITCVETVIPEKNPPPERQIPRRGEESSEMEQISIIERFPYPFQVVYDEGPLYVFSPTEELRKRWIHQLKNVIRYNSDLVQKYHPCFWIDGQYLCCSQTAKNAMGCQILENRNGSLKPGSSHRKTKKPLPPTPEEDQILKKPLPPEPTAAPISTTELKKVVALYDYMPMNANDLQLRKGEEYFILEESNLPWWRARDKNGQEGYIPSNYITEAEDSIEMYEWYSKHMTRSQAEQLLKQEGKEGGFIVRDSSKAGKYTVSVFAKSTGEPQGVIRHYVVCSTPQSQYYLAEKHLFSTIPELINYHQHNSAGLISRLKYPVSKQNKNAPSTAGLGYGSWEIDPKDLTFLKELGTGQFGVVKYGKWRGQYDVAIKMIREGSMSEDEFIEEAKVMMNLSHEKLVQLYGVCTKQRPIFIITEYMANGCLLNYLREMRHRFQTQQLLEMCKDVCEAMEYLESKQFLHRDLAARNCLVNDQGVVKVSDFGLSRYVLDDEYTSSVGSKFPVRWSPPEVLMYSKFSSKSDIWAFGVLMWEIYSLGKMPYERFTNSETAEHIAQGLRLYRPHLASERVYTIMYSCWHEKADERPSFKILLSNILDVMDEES

On to `C=CC(=O)N1CCC[C@@H](c2nc(-c3ccc(Oc4cccc(OC)c4F)cc3)c3cnccn23)C1` [Compound 1, (R)-1-(3-(1-(4-(2-fluoro-3-methoxyphenoxy)phenyl)imidazo[1,5-a]pyrazin-3-yl)piperidin-1-yl)prop-2-en-1-one], for which the “Btk occupancy in vivo” value at Btk [1] (5 mg/kg single oral dose) is recorded as “full occupancy”.

Regarding `C=CC(=O)N1CCCC[C@H]1c1nc(-c2ccc(Oc3cccc(OC)c3F)cc2)c2c(C)nccn12` [Compound 27, (S)-1-(2-(1-(4-(2-fluoro-3-methoxyphenoxy)phenyl)-8-methylimidazo[1,5-a]pyrazin-3-yl)piperidin-1-yl)prop-2-en-1-one], the “Btk occupancy in vivo” value on Btk [1] (10 mg/kg single oral dose) is on record as “full occupancy”. For `C=CC(=O)N1CCC[C@H]1c1nc(-c2ccc(Oc3cccc(OC)c3F)cc2)c2cnccn12` [Compound 30, (S)-1-(2-(1-(4-(2-fluoro-3-methoxyphenoxy)phenyl)imidazo[1,5-a]pyrazin-3-yl)pyrrolidin-1-yl)prop-2-en-1-one], on Btk [1] (5 mg/kg single oral dose), the “Btk occupancy in vivo” value was “full occupancy”. On to `CC#CC(=O)N1CC[C@@H](c2nc(-c3ccc(C(=O)Nc4cc(C(F)(F)F)ccn4)cc3)c3cncc(OCC)n23)C1` [Compound 196, (R)-4-(3-(1-(but-2-ynoyl)pyrrolidin-3-yl)-5-ethoxyimidazo[1,5-a]pyrazin-1-yl)-N-(4-(trifluoromethyl)pyridin-2-yl)benzamide], for which the pIC50 against BTK [2] is 6.00 to 7.00. Consider `C=CC(=O)N1CC[C@@H](c2nc(-c3ccc(C(=O)Nc4cc(C(F)(F)F)ccn4)cc3F)c3cncc(OCC)n23)C1` [Compound 197, (R)-4-(3-(1-acryloylpyrrolidin-3-yl)-5-ethoxyimidazo[1,5-a]pyrazin-1-yl)-3-fluoro-N-(4-(trifluoromethyl)pyridin-2-yl)benzamide], for which the pIC50 at BTK [2] (read-out: BTK Inhibition) is above 8.00. Regarding `CC#CC(=O)N1CC[C@@H](c2nc(-c3ccc(C(=O)Nc4cc(C(F)(F)F)ccn4)cc3F)c3cncc(OCC)n23)C1` [Compound 198, (R)-4-(3-(1-(but-2-ynoyl)pyrrolidin-3-yl)-5-ethoxyimidazo[1,5-a]pyrazin-1-yl)-3-fluoro-N-(4-(trifluoromethyl)pyridin-2-yl)benzamide], the pIC50 against BTK [2] is 7.00 to 8.00. The same measure, in the same setting: in the case of `CC#CC(=O)N1CCC[C@H]1c1nc(-c2ccc(C(=O)Nc3cc(C(F)(F)F)ccn3)cc2)c2cncc(OCC)n12` [Compound 203, (S)-4-(3-(1-(but-2-ynoyl)pyrrolidin-2-yl)-5-ethoxyimidazo[1,5-a]pyrazin-1-yl)-N-(4-(trifluoromethyl)pyridin-2-yl)benzamide] it was 6.00 to 7.00. Regarding `C=CC(=O)N1CCC[C@H]1c1nc(-c2ccc(C(=O)Nc3cc(C(F)(F)F)ccn3)cc2)c2cncc(OCC)n12` [Compound 204, (S)-4-(3-(1-acryloylpyrrolidin-2-yl)-5-ethoxyimidazo[1,5-a]pyrazin-1-yl)-N-(4-(trifluoromethyl)pyridin-2-yl)benzamide], the pIC50 at BTK [2] (read-out: BTK Inhibition) is above 8.00.
